The record followed here is patent US8633005B2, “Isocyclomaltooligosaccharide(s), isocyclomaltooligosaccharide-forming enzyme, their preparation and uses” (Hayashibara Co., Ltd., priority 2004, dated 2014).

The nature of data set [1]: Reducing power by the Somogyi-Nelson method. The data set is classed as physicochemical. The source says:
It was concluded that Saccharides I and II were substantially non-reducing saccharides.

Data set [2] deals with ICM-forming enzyme. In words: Effects of metal ions on the enzyme activity. Conditions: 1 mM metal salt; for Relative activity: None = 100. In kind it is biochemical, Bacillus circulans AM7.
A short description of data set [3]: Optimum temperature and pH for the enzyme reaction. The data set is classed as biochemical, Bacillus circulans AM7. Conditions: for Optimum pH: 30° C. for 30 min; for Optimum temperature: pH 6.0 for 30 min. The method, then:
The enzyme activity of ICM-forming enzyme of the present invention can be assayed as follows: A substrate solution is prepared by dissolving amylose in 50 mM acetate buffer (pH 6.0) containing 1 mM CaCl2 to give a concentration of 1.25% (w/v). 0.2 ml of an enzyme solution is added to 0.8 ml of the substrate solution, and the mixture solution is incubated at 30° C. for 30 mm. After stopping the reaction by heating at about 100° C. for 10 min, the reaction mixture is admixed with 4,000 units/g-solid of α-glucosidase and 250 units/g-solid of glucoamylase to hydrolyze the remaining soluble starch and concomitant oligosaccharides, and followed by the enzyme treatment at 50° C. for one hour. The amount of ICG5 contained in the treated mixture is determined by HPLC described later in Experiment 1. One unit activity of ICM-forming enzyme is defined as the amount of enzyme which forms one μmole of ICG5 per minute under the above conditions.
The results are in FIG. 9 (Optimum temperature) and FIG. 10 (Optimum pH), respectively.

Where [4] appears, read: enzyme purified from Bacillus circulans AM7.
Setting [5] is: recombinant enzyme from transformant ETAM1.

Consider `OCC1OC2OC3C(CO)OC(OC4C(CO)OC(OC5C(CO)OC(OC6C(CO)OC(OCC7OC(OC1C(O)C2O)C(O)C(O)C7O)C(O)C6O)C(O)C5O)C(O)C4O)C(O)C3O` [ICG6, cyclo{→6)-α-D-glucopyranosyl-(1→4)-α-D-glucopyranosyl-(1→4)-α-D-glucopyranosyl-(1→4)-α-D-glucopyranosyl-(1→4)-α-D-glucopyranosyl-(1→4)-α-D-glucopyranosyl-(1→}], for which, in data set [1], the Reducing power result is “less than the measurable limit”.
Turning to `[Cl][Cu][Cl]` [CuCl2], in data set [2], the “Inhibition of ICM-forming enzyme activity” value is given as “about 20%” and the Relative activity stood at 79%.
Take `[Cl-].[Cl-].[Zn+2]` [ZnCl2]: the Relative activity in data set [2] is given as 113%.
Still for that read-out and setting: for `[Cl][Ni][Cl]` [NiCl2] the value was 105%.
Turning to `[Ba+2].[Cl-].[Cl-]` [BaCl2], the Relative activity in data set [2] worked out at 99%.
As to `[Cl][Fe]([Cl])[Cl]` [FeCl3], in data set [2], the “Inhibition of ICM-forming enzyme activity” value is “about 20%” and the Relative activity stood at 82%.
Regarding `[Cl-].[Cl-].[Sr+2]` [SrCl2], in data set [2], the Relative activity was determined as 100%.
For the molecule `[Cl][Al]([Cl])[Cl]` [AlCl3], the Relative activity in data set [2] was found to be 106%.

B1: ICM-forming enzyme: enzyme from Bacillus circulans AM7 (FERM BP-10111) forming ICM from α-1,4 glucans; amino acid sequence SEQ ID NO:2 (protein)
chain: ASIGTVTENDTIYQIMVDRFNDGDSSNNATGAAIRYGENSEEDFRYMKGGDWQGVIDKLPYIHNMGYTAIWISPVAEPQMTNRENNGTGKNTAYHGYNVKDPNKANPYFGTKEKLKELVDSAHALGIKVIIDVVPNHIGDYMLGTQAFYDIPSLQPAAPFNNPAWYHHNGDINWSLADGRYDQWAQDYLENHDLGGLDDIDFDVPAAKQAIFSSIKGWFDYTGADGARVDAAKLMKPTDIGELQNLLGVNTFGENFDGNAEFVSRWVGTNKEWGMLDFPLFFSVLNSFAYGQSFDANIKGTLAQDSYYGGNANHMVTFIDNHDRNRFLTEAGGSVEKLQNALSFIFTVRGTPVVFQGTEQNKGNGNGQIMTGGIADTWNRWSMVKRDANGNVLENYFNENASTFKHVAKLNEIRKNNPALRTGTQREMWSAQNLYAFSRRIDTGTNVGQEVISAFSNASGGSQTVTLPLRAESTLTAGTVLVNQLNPSDTVTVQAGGVTGKQITVTLGANSAKIYAKTQPVTDTQAPSVPGNVTATVQNASSALVSWSASTDNVGVTGYEIYRNGVKIGTSATTSFTDNGLVGSTNYSYTVKAYDAAMNLSAFSAAALIVTPAGNSVTIYYKQGYTNPYIHYRPVGGTWTTSPGVAIPAAEVAGYNKITINIGAATQLEACFNNGSGIWDSNGGSNYLFGTGTWTYTPTGNIQAGGPVTPTASPTATPTVAPTATPTVTPTPTPTATPTVAPTATPTVAPTATPVPTATPAGNTATIYYKNTAFSNSYIHYKLDGATTWTTSPGVPMQASTFSGYKSITIPLGTATGLTAAFNNGSGTWDSNGGNNYHFGTGSSSLVGGSLTTGEPQADSVTFRVSVPGSTPANAPVYLTGSFNSWNAADTAYLLTRGSDGVYSVTLNLPAGTAVTYKLTRGSWATVETTSSGADITNRTLTPAGGAQTVTISVQRWKDQ
modifications: Bacillus circulans
Take B1: the “Optimum pH” value in data set [3] (setting [4]) and in data set [3] (setting [5]) was 4.5 to 8.0 throughout. Further, the Optimum temperature in data set [3] (setting [4]) and in data set [3] (setting [5]) was 50 to 55 °C throughout.
